This passage reports Water solubility, Toxicity and IC50 results from patent publication US20050176758A1, “NOVEL COMPOUNDS AND METHODS FOR SYNTHESIS AND THERAPY” (priority 1995, published 2005).

A short description of data set [1]: Water solubility of salt form. In kind it is physicochemical. The note with it: HCl salt form (dissolved in 3N HCl and lyophilized). The protocol: Amino ethyl ester 262: Triphenyl phosphine (342 mg, 1.30 mmol) was added in one portion to a solution of 261 ([…], 0.80 mmol) in THF (17 mL) and water (1.6 mL). The reaction was then heated at 50° C. for 10 h, cooled and concentrated in vacuo to give a pale white solid. Purification of the crude solid by flash chromatography on silica gel (50% methanol in ethyl acetate) gave 242 mg (96%) of the amino ethyl ester 262 as a pale solid. The amino ethyl ester is dissolved in 3N HCl and lyophilized to give the corresponding water soluble HCl salt form. ^1H NMR (D2O, 300 MHz): δ 6.84 (s, 1H); 4.36-4.30 (br m, 1H); 4.24 (q, 2H, J=7.2 Hz); 4.05 (dd, 1H, J=9.0, 11.7 Hz); 3.63-3.50 (m, 2H); 2.95 (dd, 1H, J=5.7, 17.1 Hz); 2.57-2.45 (m, 1H); 1.60-1.39 (m, 4H); 1.27 (t, 3H, J=7.2 Hz); 0.89-0.80 (m, 6H).

For data set [2] the following is noted: literature reports; cited from earlier work.
Another data set deals with neuraminidase (Influenza A virus, UniProt P03468).
neuraminidase, sequence (P03468 whole entry): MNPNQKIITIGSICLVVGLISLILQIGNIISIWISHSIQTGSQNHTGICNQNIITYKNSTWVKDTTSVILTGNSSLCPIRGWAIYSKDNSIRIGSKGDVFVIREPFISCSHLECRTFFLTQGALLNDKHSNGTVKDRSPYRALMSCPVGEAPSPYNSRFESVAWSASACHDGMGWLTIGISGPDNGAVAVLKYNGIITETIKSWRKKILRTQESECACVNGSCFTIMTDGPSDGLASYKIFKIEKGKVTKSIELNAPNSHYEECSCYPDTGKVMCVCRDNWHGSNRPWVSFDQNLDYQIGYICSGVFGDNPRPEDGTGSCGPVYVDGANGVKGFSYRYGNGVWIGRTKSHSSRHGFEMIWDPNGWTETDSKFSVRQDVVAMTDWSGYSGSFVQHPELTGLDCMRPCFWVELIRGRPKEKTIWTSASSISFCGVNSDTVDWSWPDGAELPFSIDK

pIC50: −log10 of the molar value.

Source text for neuraminidase: Compositions of the invention are screened for inhibitory activity against neuraminidase by any of the conventional techniques for evaluating enzyme activity.
Enzyme Inhibition: Using the methods of screening in vitro activity described above, the following activities were observed (+10-100 μm, ++1-10 μm, +++<1.0 μm):

Consider `CCOC(=O)C1=CC(OC(CC)CC)C(NC(C)=O)C(N)C1` (stereo not shown) [compound 262], for which the Water solubility result in data set [1] is on record as “water soluble”.
In the case of `CC(=O)N[C@H]1[C@H]([C@H](O)[C@H](O)CO)OC(C(=O)O)=C[C@@H]1N=C(N)N` [GG167, 4-guanidino-2,4-dideoxy-2,3-dehydro-N-acetylneuraminic acid], in data set [2], the Toxicity result is recorded as “nontoxic”.
As usually defined, the pIC50 is the negative decadic logarithm of the IC50, by convention in mol/L. A high value points to a small IC50. `CC(=O)NC1C(O)C=C(C(=O)O)CC1NC(=N)N` (stereo not shown) [compound 94]: the pIC50 on neuraminidase was > 6.00.
Turning to `CC(=O)N[C@@H]1[C@@H](N)CC(C(=O)O)=C[C@H]1OCC(O)CO` (stereo partly shown) [compound 8], the pIC50 at neuraminidase was 5.00 to 6.00.
